Active and inactive are the calls of the source. No cut-off for these calls is given here.
Assays:
[1] = biological target: T1, D-3-phosphoglycerate dehydrogenase (Homo sapiens) (UniProt O43175); assay: Inhibition of recombinant human C-terminal His-tagged PHGDH (1 to 533 residues) expressed in Escherichia coli assessed as reduction in NADH formation at 100 uM using 3-phosphoglycerate as substrate preincubated measured for 7 mins in presence of NAD+ by spectrophotometric method relative to control
T1 sequence (whole entry): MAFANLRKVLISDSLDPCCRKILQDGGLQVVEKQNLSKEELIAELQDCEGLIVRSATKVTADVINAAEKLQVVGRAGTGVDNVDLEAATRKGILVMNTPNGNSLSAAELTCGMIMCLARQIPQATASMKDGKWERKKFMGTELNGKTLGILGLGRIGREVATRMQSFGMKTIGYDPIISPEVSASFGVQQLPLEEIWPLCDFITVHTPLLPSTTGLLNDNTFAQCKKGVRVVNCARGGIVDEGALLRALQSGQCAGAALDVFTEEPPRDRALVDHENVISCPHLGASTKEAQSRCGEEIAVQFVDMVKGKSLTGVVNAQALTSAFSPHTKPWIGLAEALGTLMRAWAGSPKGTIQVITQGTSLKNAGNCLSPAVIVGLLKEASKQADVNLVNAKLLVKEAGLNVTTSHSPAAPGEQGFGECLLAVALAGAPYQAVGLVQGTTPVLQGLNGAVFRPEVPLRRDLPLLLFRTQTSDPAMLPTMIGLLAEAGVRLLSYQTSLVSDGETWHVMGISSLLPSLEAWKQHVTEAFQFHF

[2] = biological target: T2, D-3-phosphoglycerate dehydrogenase (Homo sapiens, UniProt O43175); assay: Inhibition of recombinant human C-terminal His-tagged PHGDH (1 to 533 residues) expressed in Escherichia coli assessed as reduction in NADH formation using 3-phosphoglycerate as substrate in presence of NAD+ by resorufin fluorescence based PSAT1/diaphorase/PSPH coupled enzyme assay
T2 sequence (O43175 whole entry): T1 sequence (whole entry)

MDA-MB-231 = assay: Cytotoxicity against PHGDH deficient human MDA-MB-231 cells assessed as reduction in cell viability after 5 days by presto blue assay; format: functional, cell-based; details: MDA-MB-231, 120 h
HL-60 = assay: Cytotoxicity against PHGDH knockout human HL60 cells assessed as reduction in cell viability after 5 days by presto blue assay; format: functional, cell-based; details: HL-60, 120 h
[3] = biological target: T1, D-3-phosphoglycerate dehydrogenase (Homo sapiens); assay: Ratio of IC50 for inhibition of PHGDH in human HL60 cells assessed as reduction in cell viability in serine repleted medium to IC50 for inhibition of PHGDH in human HL60 cells assessed as reduction in cell viability in serine depleted medium; format: cell-based
[4] = biological target: T1, D-3-phosphoglycerate dehydrogenase (Homo sapiens); assay: Ratio of IC50 for inhibition of PHGDH in human SiHa cells assessed as reduction in cell viability in serine repleted medium to IC50 for inhibition of PHGDH in human SiHa cells assessed as reduction in cell viability in serine depleted medium; format: cell-based
[5] = biological target: T2, D-3-phosphoglycerate dehydrogenase; assay: (§1) Non-competitive inhibition of recombinant human C-terminal His-tagged PHGDH (1 to 533 residues) expressed in Escherichia coli assessed as reduction in NADH formation preincubated for 30 mins followed by constant concentration of 3-phosphoglycerate substrate addition in presence of varying levels of NAD+ by resorufin fluorescence based PSAT1/diaphorase/PSPH coupled enzyme assay
[6] = biological target: T1, D-3-phosphoglycerate dehydrogenase (Homo sapiens); details: 160 uM
[7] = biological target: T2, D-3-phosphoglycerate dehydrogenase; assay: as §1, with “varying levels” for “constant concentration”, “constant” for “varying levels of”, “NAD+ concentration” for “NAD+”

SMILES: FC(F)(F)c1cc(NC(=S)N2CCN(Cc3ccccc3)CC2)cc(C(F)(F)F)c1
- inhibition [1]: 80%

SMILES: O=C(C(=S)N1CCOCC1)c1ccccc1Br
- IC50 [2]: 161 µM

SMILES: O=C1C=CC(=O)N1c1ccccc1Cl
- inhibition [1]: 78%

SMILES: O=C(C(=S)N1CCOCC1)c1cccc(Cl)c1
- IC50 (MDA-MB-231): > 100 µM
- IC50 [2]: > 200 µM
- IC50 (HL-60): > 100 µM

SMILES: O=C(C(=S)N1CCOCC1)c1ccc(I)cc1
- IC50 (MDA-MB-231): > 100 µM
- IC50 [2]: 178 µM
- IC50 (HL-60): > 100 µM
- Ratio IC50 [3]: 2.8
- Ratio IC50 [4]: 2.8

SMILES: O=C(C(=S)N1CCOCC1)c1ccc(Br)cc1
- IC50 (MDA-MB-231): > 100 µM
- IC50 [2]: 131 µM
- IC50 (HL-60): > 100 µM
- Ratio IC50 [3]: 2.2
- Ratio IC50 [4]: 2.6

SMILES: O=C(Nc1ccccc1[N+](=O)[O-])c1ccc(Cl)cc1
- IC50 (MDA-MB-231): > 100 µM
- IC50 [2]: 75.2 µM
- inhibition [1]: 59%
- IC50 (HL-60): > 100 µM

SMILES: S=C(NC1CCCCC1)Sc1ccccc1
- inhibition [1]: 51%

SMILES: CCCCCN1C(=O)NC(c2ccccc2)(c2ccccc2)C1=O
- inhibition [1]: 25%

SMILES: Nc1nc2c(s1)CCCC2
- inhibition [1]: 46%

SMILES: O=C(C(=S)N1CCOCC1)c1ccc(Cl)cc1
- IC50 (MDA-MB-231): > 100 µM
- IC50 [2]: 8.7 µM
- IC50 (HL-60): > 100 µM
- Ratio IC50 [3]: 3.3
- Ratio IC50 [4]: 3.2

SMILES: O=C(C(=S)N1CCOCC1)c1ccccc1I
- IC50 [2]: > 200 µM

SMILES: O=C(C(=S)N1CCOCC1)c1ccc([N+](=O)[O-])cc1
- IC50 (MDA-MB-231): > 100 µM
- IC50 [2]: 35.1 µM
- IC50 (HL-60): > 100 µM
- Ratio IC50 [3]: 2.9
- Ratio IC50 [4]: 3

SMILES: O=C1C=CC(=O)c2ccccc21
- inhibition [1]: 95%

SMILES: S=C(Nc1ccccc1)NC1CCCCC1
- inhibition [1]: 28%

SMILES: O=C(N1CCN(c2ccccc2)CC1)n1nnc2ccccc21
- inhibition [1]: 37%

SMILES: O=C(C(=S)N1CCOCC1)c1ccc(-c2ccccc2)cc1
- IC50 [2]: > 200 µM

SMILES: O=C(C(=S)N1CCOCC1)c1ccccc1
- Ki [5]: 27 µM
- inhibition [6]: Active
- IC50 (MDA-MB-231): > 100 µM
- IC50 [2]: 30.9 µM
- Ki [7]: 40 µM
- IC50 (HL-60): > 100 µM
- Ratio IC50 [4]: 9.1

SMILES: O=C(C(=S)N1CCOCC1)c1cccc(I)c1
- IC50 [2]: > 200 µM

SMILES: S=C(c1ccc(Cl)c(Cl)c1)N1CCOCC1 [(3,4-DICHLOROPHENYL)(MORPHOLINO)METHANETHIONE]
- IC50 (MDA-MB-231): > 100 µM
- inhibition [1]: 96%
- IC50 (HL-60): > 100 µM

SMILES: c1ccc(C2CNCCO2)cc1 (configuration not stated)
- inhibition [1]: 61%

SMILES: O=C(C(=S)N1CCOCC1)c1ccccc1[N+](=O)[O-]
- IC50 [2]: > 200 µM

SMILES: O=C(C(=S)N1CCOCC1)c1ccc(F)cc1
- IC50 (MDA-MB-231): > 100 µM
- IC50 [2]: 68.9 µM
- IC50 (HL-60): > 100 µM
- Ratio IC50 [3]: 1.5
- Ratio IC50 [4]: > 2.3

SMILES: O=C(C(=S)N1CCOCC1)c1cccc(F)c1
- IC50 [2]: > 200 µM

SMILES: COc1ccc(S(=O)(=O)N2CCNCC2)cc1
- inhibition [1]: 35%

SMILES: O=C(C(=S)N1CCOCC1)c1cccc([N+](=O)[O-])c1
- IC50 [2]: 88.1 µM

SMILES: O=C(C(=S)N1CCOCC1)c1ccccc1F
- IC50 [2]: > 200 µM

SMILES: O=C(C(=S)N1CCOCC1)c1cccc(Br)c1
- IC50 [2]: > 200 µM

SMILES: O=C(C(=S)N1CCOCC1)c1ccccc1Cl
- IC50 (MDA-MB-231): > 100 µM
- IC50 [2]: > 200 µM
- IC50 (HL-60): > 100 µM

SMILES: O=C(NC(c1ccccc1)c1ccccc1)c1ccc([N+](=O)[O-])cc1
- inhibition [1]: 54%

SMILES: Cc1cc(C)nc(NC(=O)c2ccc([N+](=O)[O-])cc2)n1
- inhibition [1]: 13%

SMILES: O=C1C=CC(=O)C=C1
- inhibition [1]: 100%
